Patent US8741911B2, “Raf inhibitor compounds” (Eli Lilly and Company, priority 2012, dated 2014)

Key:
[1] = tested on: A375res cells; assay: CellTiter-Glo proliferation and viability assay in vemurafenib-resistant cells; format: cell-based, human
[2] = tested on: A375; assay: CellTiter-Glo proliferation and viability assay; format: cell-based; settings: Homo sapiens, A-375, parental A375 B-Raf V600E cells, comparison with A375res

Compound: CCCS(=O)(=O)Nc1ccc(F)c(C(=O)c2c[nH]c3ncc(-c4ccc(Cl)cc4)cc23)c1F [PLX4032, vemurafenib]
- shift of IC50, A375res versus A375 [1]: ~30 fold
- IC50 ([1]; Homo sapiens, A375res cells): > 7000 nM
- IC50 [2]: 252 nM
